# Tests used:
# Test in all cases: Agar dilution antibacterial MIC assay
# Format in all cases: cell-based
# [1] = tested on: Candida albicans CCH 442; conditions: organism code TT, BHI agar, 35-37 °C, 20 to 24 hours, unit assumed
# Method: (§1) Representative compounds of the present invention were assayed in vitro for antibacterial activity as follows: Twelve petri dishes containing successive aqueous dilutions of the test compound mixed with 10 mL of sterilized Brain Heart Infusion (BHI) agar (Difco 0418-01-5) were prepared. Each plate was inoculated with 1:100 (or 1:10 for slow-growing strains, such as Micrococcus and Streptococcus) dilutions of up to 32 different microorganisms, using a Steers replicator block. […] In addition, a control plate, using BHI agar containing no test compound, was prepared and incubated at the beginning and end of each test.
# (§2) An additional plate containing a compound having known susceptibility patterns for the organisms being tested and belonging to the same antibiotic class as the test compound was also prepared and incubated as a further control, as well as to provide test-to-test comparability.
# (§3) After incubation, each plate was visually inspected. The minimum inhibitory concentration (MIC) was defined as the lowest concentration of drug yielding no growth, a slight haze, or sparsely isolated colonies on the inoculum spot as compared to the growth control.
# [2] = tested on: Enterococcus faecium ATCC 8043; conditions: organism code II, BHI agar, 35-37 °C, 20 to 24 hours, unit assumed
# Method: as §1, §2, §3
# [3] = tested on: Escherichia coli DC-2; conditions: organism code SS, BHI agar, 35-37 °C, 20 to 24 hours, unit assumed
# Method: as §1, §2, §3
# [4] = tested on: Escherichia coli JUHL; conditions: organism code QQ, BHI agar, 35-37 °C, 20 to 24 hours, unit assumed
# Method: as §1, §2, §3
# [5] = tested on: Escherichia coli SS; conditions: organism code RR, BHI agar, 35-37 °C, 20 to 24 hours, unit assumed
# Method: as §1, §2, §3
# [6] = tested on: Haemophilis Influenzae DILL AMP R; conditions: organism code WW, BHI agar, 35-37 °C, 20 to 24 hours, unit assumed
# Method: as §1, §2, §3
# [7] = tested on: Micrococcus luteus ATCC 4698; conditions: organism code PP, BHI agar, 35-37 °C, 20 to 24 hours, unit assumed
# Method: as §1, §2, §3
# [8] = tested on: Micrococcus luteus ATCC 9341; conditions: organism code OO, BHI agar, 35-37 °C, 20 to 24 hours, unit assumed
# Method: as §1, §2, §3
# [9] = tested on: Mycobacterium smegmatis ATCC 114; conditions: organism code UU, BHI agar, 35-37 °C, 20 to 24 hours, unit assumed
# Method: as §1, §2, §3
# [10] = tested on: Nocardia Asteroides ATCC9970; conditions: organism code VV, BHI agar, 35-37 °C, 20 to 24 hours, unit assumed
# Method: as §1, §2, §3
# [11] = tested on: Staphylococcus aureus 1775; conditions: organism code GG, BHI agar, 35-37 °C, 20 to 24 hours, unit assumed
# Method: as §1, §2, §3
# [12] = tested on: Staphylococcus aureus A-5278; conditions: organism code CC, BHI agar, 35-37 °C, 20 to 24 hours, unit assumed
# Method: as §1, §2, §3
# [13] = tested on: Staphylococcus aureus A5177; conditions: organism code BB, BHI agar, 35-37 °C, 20 to 24 hours, unit assumed
# Method: as §1, §2, §3
# [14] = tested on: Staphylococcus aureus ATCC 6538P; conditions: organism code AA, BHI agar, 35-37 °C, 20 to 24 hours, unit assumed
# Method: as §1, §2, §3
# [15] = tested on: Staphylococcus aureus CMX 553; conditions: organism code FF, BHI agar, 35-37 °C, 20 to 24 hours, unit assumed
# Method: as §1, §2, §3
# [16] = tested on: Staphylococcus aureus CMX 642A; conditions: organism code DD, BHI agar, 35-37 °C, 20 to 24 hours, unit assumed
# Method: as §1, §2, §3
# [17] = tested on: Staphylococcus aureus NCTC10649M; conditions: organism code EE, BHI agar, 35-37 °C, 20 to 24 hours, unit assumed
# Method: as §1, §2, §3
# [18] = tested on: Staphylococcus epidermidis 3519; conditions: organism code HH, BHI agar, 35-37 °C, 20 to 24 hours, unit assumed
# Method: as §1, §2, §3
# [19] = tested on: Streptococcus Pneumonia 5649; conditions: organism code ZZA, BHI agar, 35-37 °C, 20 to 24 hours, unit assumed
# Method: as §1, §2, §3
# [20] = tested on: Streptococcus Pneumonia 5979; conditions: organism code ZZ, BHI agar, 35-37 °C, 20 to 24 hours, unit assumed
# Method: as §1, §2, §3
# [21] = tested on: Streptococcus Pneumonia ATCC6303; conditions: organism code XX, BHI agar, 35-37 °C, 20 to 24 hours, unit assumed
# Method: as §1, §2, §3
# [22] = tested on: Streptococcus Pneumonia GYR 1171; conditions: organism code YY, BHI agar, 35-37 °C, 20 to 24 hours, unit assumed
# Method: as §1, §2, §3
# [23] = tested on: Streptococcus agalactiae CMX 508; conditions: organism code KK, BHI agar, 35-37 °C, 20 to 24 hours, unit assumed
# Method: as §1, §2, §3
# [24] = tested on: Streptococcus bovis A-5169; conditions: organism code JJ, BHI agar, 35-37 °C, 20 to 24 hours, unit assumed
# Method: as §1, §2, §3
# [25] = tested on: Streptococcus pyogenes 930; conditions: organism code MM, BHI agar, 35-37 °C, 20 to 24 hours, unit assumed
# Method: as §1, §2, §3
# [26] = tested on: Streptococcus pyogenes EES61; conditions: organism code LL, BHI agar, 35-37 °C, 20 to 24 hours, unit assumed
# Method: as §1, §2, §3
# [27] = tested on: Streptococcus pyogenes PIU 2548; conditions: organism code NN, BHI agar, 35-37 °C, 20 to 24 hours, unit assumed
# Method: as §1, §2, §3
Molecule,MIC [1] [µg/mL],MIC [4] [µg/mL],MIC [5] [µg/mL],MIC [6] [µg/mL],MIC [7] [µg/mL],MIC [9] [µg/mL],MIC [10] [µg/mL],MIC [11] [µg/mL],MIC [12] [µg/mL],MIC [13] [µg/mL],MIC [14] [µg/mL],MIC [18] [µg/mL],MIC [19] [µg/mL],MIC [21] [µg/mL],MIC [22] [µg/mL],MIC [23] [µg/mL],MIC [24] [µg/mL],MIC [25] [µg/mL],MIC [26] [µg/mL],MIC [27] [µg/mL],further results
"CC[C@H]1OC(=O)[C@H](C)C(=O)[C@H](C)[C@@H](O[C@@H]2O[C@H](C)C[C@H](N(C)C)[C@H]2O)[C@](C)(OCC#Cc2ccc(-c3ccccn3)s2)C[C@@H](C)C(=O)[C@H](C)[C@H]2NC(=O)O[C@@]21C [Example 1, Compound of Formula I: R^b is H, L is -C(O)-, T is -NH-, R is-(CH2)-C≡C-(5-(2-pyridyl)-2-thienyl)]",> 100,12.5,0.1,2,0.1,0.2,0.02,> 100,> 100,0.05,0.05,0.1,0.25,0.03,0.03,0.02,0.01,12.5,0.02,0.1,MIC [2]: 0.05 µg/mL; MIC [3]: 6.2 µg/mL; MIC [8]: 0.02 µg/mL; MIC [15]: 0.05 µg/mL; MIC [16]: 0.05 µg/mL; MIC [17]: 0.1 µg/mL; MIC [20]: 0.25 µg/mL
"CC[C@H]1OC(=O)[C@H](C)[C@@H](O[C@H]2C[C@@](C)(OC)[C@@H](O)[C@H](C)O2)[C@H](C)[C@@H](O[C@@H]2O[C@H](C)C[C@H](N(C)C)[C@H]2O)[C@](C)(O)C[C@@H](C)C(=O)[C@H](C)[C@@H](O)[C@]1(C)O [Ery. A standard, Erythromycin A, reference compound]",> 100,> 100,0.78,4,0.2,3.1,0.1,> 100,> 100,3.1,0.2,0.39,16,0.06,0.06,0.05,0.02,> 100,0.05,6.2,MIC [2]: 0.05 µg/mL; MIC [3]: > 100 µg/mL; MIC [8]: 0.05 µg/mL; MIC [15]: 0.39 µg/mL; MIC [16]: 0.39 µg/mL; MIC [17]: 0.39 µg/mL
"CC[C@H]1OC(=O)[C@H](C)C(=O)[C@H](C)[C@@H](O[C@@H]2O[C@H](C)C[C@H](N(C)C)[C@H]2O)[C@](C)(OCC#Cc2ccc(-c3ccccn3)s2)C[C@@H](C)C(=O)[C@H](C)[C@H]2N(N)C(=O)O[C@]12C [Example 5, Compound of Formula I: R^b is H, L is -C(O)-, T is -N(W-R^d)-, W is -NH-, R^d is H, R is-(CH2)-C≡C-(5-(2-pyridyl)-2-thienyl)]",> 100,25,0.2,2,0.1,1.56,0.01,> 100,> 100,0.05,0.05,0.1,0.25,0.015,0.015,≤ 0.005,≤ 0.005,50,0.01,0.39,MIC [17]: 0.1 µg/mL; MIC [20]: 2 µg/mL
"Compound of Formula II: R^b is H, R is -(CH2)-C≡C-(5-(2-pyridyl)-2-thienyl) [Example 4]",> 100,25,0.39,4,0.2,0.2,0.02,> 100,> 100,0.1,0.05,0.1,0.25,≤ 0.004,≤ 0.004,0.05,0.01,6.2,0.02,0.2,MIC [17]: 0.2 µg/mL; MIC [20]: 4 µg/mL
"CC[C@H]1OC(=O)[C@H](C)C(=O)[C@H](C)[C@@H](O[C@@H]2O[C@H](C)C[C@H](N(C)C)[C@H]2O)[C@](C)(OCC#Cc2ccc(-c3ccncc3)s2)C[C@@H](C)C(=O)[C@H](C)[C@H]2NC(=O)O[C@@]21C [Example 3, Compound of Formula I: R^b is H, L is -C(O)-, T is -NH-, R is-(CH2)-C≡C-(5-(4-pyridyl)-2-thienyl)]",> 100,100,0.2,2,0.05,0.039,0.01,,> 100,0.05,0.05,> 100,0.125,≤ 0.004,≤ 0.004,≤ 0.05,≤ 0.05,6.2,≤ 0.05,0.1,MIC [16]: 0.1 µg/mL; MIC [20]: 2 µg/mL

# Reference: patent EP1161438B1, “6-O-SUBSTITUTED MACROLIDES HAVING ANTIBACTERIAL ACTIVITY” (ABBOTT LABORATORIES, priority 1999, dated 2000)
